In one assay the test system is endogenous a-syn. Put plainly: Endogenous a-syn immunofluorescence in rat cortical neurons. It counts as cell-based. From the text:
Pregnant rats (E17) of the Sprague-Dawley strain were purchased from Envigo. Embryos were surgically removed from the mothers and cortices dissected in Hanks Balanced salt solution (Gibco). The meninges were removed, and cells were dissociated using a papain dissociation system (Worthington) before being resuspended in Neurobasal medium A supplemented with antibiotic-antimycotic solution (Gibco), L-glutamine substitute (GlutaMAX™; Gibco) and factor B27 (Gibco). […]
After fixation, cells were permeabilized with 0.2% Triton-X-100 for 15 min, washed three times with PBS and then incubated with blocking solution (1% BSA, 22.52 mg/mL glycine, 0.1% Tween-20 in PBS or 0.4% saponin, 1% BSA, and 5% goat or donkey serum in PBS) for 1 h. […] Following another three washes with PBS, nuclei were counterstained with DAPI (ThermoFisher) and then coverslips were mounted on slides using Dako fluorescence mounting medium (Agilent) and sealed using clear nail varnish.
Confocal images of immunofluorescent staining were acquired with a Zeiss LSM880 confocal microscope equipped with 405, 488, 555, and 639 nm laser lines. All images were taken within the linear range at constant gain and pinhole settings at optimal resolution settings determined by the software. […]

Assay [1] has as its system endogenous a-syn in SNCA triplication fibroblasts. Put plainly: a-syn immunofluorescence in SNCA triplication fibroblasts. The format is cell-based, human. The text has this:
Fig. 6 PDpep1.3 reduces endogenous a-syn levels and rescues lysosomal activity in human PD cell models. A Representative images of fibroblasts from a PD patient with SNCA triplication transduced with Scramble1.3-RFP or PDpep1.3-RFP (scale bars = 10 µm). B Quantification of relative a-syn fluorescence in RFP-positive fibroblasts. Bars represent means ± s.e.m. (one-way ANOVA, F(3, 36) = 6.159; P = 0.0017 followed by Dunnett’s post-test; n = 3). C Endolysosomal flux assay using confocal microscopy in SNCA triplication fibroblasts transduced with AAV-Scramble1.3-RFP or AAV-PDpep1.3-RFP. Cells were treated as indicated with Bafilomycin A1 (Baf). Bars represent means ± s.e.m. (nested one-way ANOVA, F(3, 10) = = 23.70; P < 0.0001 followed by Dunnett’s post-test; n = 3). D Representative images of human iPSC-derived dopaminergic neurons with A53T a-syn mutation or isogenic controls without a-syn mutation. These iPSC-derived dopaminergic neurons were transduced with Scramble1.3-RFP or PDpep1.3-RFP and immunostained with anti-a-syn, anti-TH, or anti-LAMP1 antibodies (scale bars = 5 μm). E Quantification of relative a-syn fluorescence intensity in RFP-positive A53T mutant and control iPSC-derived dopaminergic neurons. Bars represent means ± s.e.m. […] F Quantification of relative LAMP1 fluorescence intensity in RFP-positive A53T mutant and control iPSC-derived dopaminergic neurons. […]

Regarding DEEIERQLKALG [PDpep1.3], the “Effect on endogenous a-syn fluorescence” value in the assay with endogenous a-syn is “reduced fluorescence intensity”. The “Effect on a-syn fluorescence in fibroblasts” value in assay [1] was “reduced a-syn fluorescence”. The “Effect on a-syn levels in presence of Bafilomycin A1” value in assay [1] (+ Bafilomycin A1) was “could not reduce a-syn levels”.
